# Assay results as given in patent publication US20140179664A1, “Heterocyclyl Pyrimidine Analogues As JAK Inhibitors” (Cellzome Limited, priority 2011, published 2014).
# What was measured:
# Format in all cases: binding
# JAK2 = target: T1, JAK2 (Homo sapiens, UniProt O60674); assay: Kinobeads assay, JAK2; conditions: mixed Molt4/Ramos lysate, read-out: Inhibition values (IC50) JAK2
# T1 construct: endogenous in cells; host or cells: Molt4 (ATCC CRL-1582) and Ramos (ATCC CRL-1596), mixed lysate 1:2
# Procedure, shortened: (§1)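 IC50s come from capture competition: compound at various concentrations versus an immobilized aminopyrido-pyrimidine ligand for kinases in 1:2 Molt4/Ramos lysate (10 mg/mL), 3 h in a cold room. Captured JAK-family kinases were measured by specific-antibody dot blot with Odyssey infrared detection.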
# TYK2 = target: T2, TYK2 (Homo sapiens, UniProt P29597); assay: Kinobeads assay, TYK2; conditions: mixed Molt4/Ramos lysate, read-out: Inhibition values (IC50) TYK2
# T2 construct: endogenous in cells; host or cells: Molt4 (ATCC CRL-1582) and Ramos (ATCC CRL-1596), mixed lysate 1:2
# Procedure, shortened: as §1
# JAK1 = target: T3, JAK1 (Homo sapiens, UniProt P23458); assay: Kinobeads assay, JAK1; conditions: mixed Molt4/Ramos lysate, read-out: Inhibition values (IC50) JAK1
# T3 construct: endogenous in cells; host or cells: Molt4 (ATCC CRL-1582) and Ramos (ATCC CRL-1596), mixed lysate 1:2
# Procedure, shortened: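 Competitive pulldown in combined Molt4 and Ramos lysates (1 vs 2 volumes): compound, as a nine-point 1:3 series, and kinobeads were shaken together for 3 hours in a cold room. Captured JAK1 was quantified on an infrared-read antibody dot blot and IC50 calculated. Controls held 2% DMSO without compound.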
# T3 sequence (P23458 whole entry): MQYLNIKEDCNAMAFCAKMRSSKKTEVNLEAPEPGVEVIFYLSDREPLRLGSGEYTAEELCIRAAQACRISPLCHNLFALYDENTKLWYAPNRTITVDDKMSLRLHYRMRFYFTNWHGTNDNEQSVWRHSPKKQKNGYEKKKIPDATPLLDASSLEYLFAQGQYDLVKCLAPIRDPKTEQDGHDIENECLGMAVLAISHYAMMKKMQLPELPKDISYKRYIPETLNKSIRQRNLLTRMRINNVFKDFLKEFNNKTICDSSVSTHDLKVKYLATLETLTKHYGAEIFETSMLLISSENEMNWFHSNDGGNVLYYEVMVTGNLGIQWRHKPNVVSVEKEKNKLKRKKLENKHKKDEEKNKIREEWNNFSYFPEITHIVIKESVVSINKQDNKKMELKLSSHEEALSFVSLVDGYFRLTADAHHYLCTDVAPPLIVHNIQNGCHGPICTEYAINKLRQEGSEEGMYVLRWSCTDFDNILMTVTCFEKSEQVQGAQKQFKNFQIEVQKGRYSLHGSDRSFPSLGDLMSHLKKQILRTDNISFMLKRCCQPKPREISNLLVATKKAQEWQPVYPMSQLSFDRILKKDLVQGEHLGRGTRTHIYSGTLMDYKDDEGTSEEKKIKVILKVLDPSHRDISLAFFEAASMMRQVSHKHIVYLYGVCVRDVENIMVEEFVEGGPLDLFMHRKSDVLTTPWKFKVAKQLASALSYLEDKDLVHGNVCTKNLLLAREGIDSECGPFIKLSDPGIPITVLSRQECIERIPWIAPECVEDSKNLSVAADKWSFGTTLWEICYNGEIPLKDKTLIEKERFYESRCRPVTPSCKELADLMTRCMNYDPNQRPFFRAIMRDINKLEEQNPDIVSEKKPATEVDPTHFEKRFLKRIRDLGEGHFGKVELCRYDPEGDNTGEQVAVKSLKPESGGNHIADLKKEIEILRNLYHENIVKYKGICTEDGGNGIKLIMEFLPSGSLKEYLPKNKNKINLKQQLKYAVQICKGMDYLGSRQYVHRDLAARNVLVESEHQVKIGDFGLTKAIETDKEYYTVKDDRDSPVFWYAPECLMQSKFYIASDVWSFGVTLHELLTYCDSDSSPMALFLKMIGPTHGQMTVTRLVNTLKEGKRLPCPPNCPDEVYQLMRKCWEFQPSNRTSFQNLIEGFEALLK
# T2 sequence (P29597 whole entry): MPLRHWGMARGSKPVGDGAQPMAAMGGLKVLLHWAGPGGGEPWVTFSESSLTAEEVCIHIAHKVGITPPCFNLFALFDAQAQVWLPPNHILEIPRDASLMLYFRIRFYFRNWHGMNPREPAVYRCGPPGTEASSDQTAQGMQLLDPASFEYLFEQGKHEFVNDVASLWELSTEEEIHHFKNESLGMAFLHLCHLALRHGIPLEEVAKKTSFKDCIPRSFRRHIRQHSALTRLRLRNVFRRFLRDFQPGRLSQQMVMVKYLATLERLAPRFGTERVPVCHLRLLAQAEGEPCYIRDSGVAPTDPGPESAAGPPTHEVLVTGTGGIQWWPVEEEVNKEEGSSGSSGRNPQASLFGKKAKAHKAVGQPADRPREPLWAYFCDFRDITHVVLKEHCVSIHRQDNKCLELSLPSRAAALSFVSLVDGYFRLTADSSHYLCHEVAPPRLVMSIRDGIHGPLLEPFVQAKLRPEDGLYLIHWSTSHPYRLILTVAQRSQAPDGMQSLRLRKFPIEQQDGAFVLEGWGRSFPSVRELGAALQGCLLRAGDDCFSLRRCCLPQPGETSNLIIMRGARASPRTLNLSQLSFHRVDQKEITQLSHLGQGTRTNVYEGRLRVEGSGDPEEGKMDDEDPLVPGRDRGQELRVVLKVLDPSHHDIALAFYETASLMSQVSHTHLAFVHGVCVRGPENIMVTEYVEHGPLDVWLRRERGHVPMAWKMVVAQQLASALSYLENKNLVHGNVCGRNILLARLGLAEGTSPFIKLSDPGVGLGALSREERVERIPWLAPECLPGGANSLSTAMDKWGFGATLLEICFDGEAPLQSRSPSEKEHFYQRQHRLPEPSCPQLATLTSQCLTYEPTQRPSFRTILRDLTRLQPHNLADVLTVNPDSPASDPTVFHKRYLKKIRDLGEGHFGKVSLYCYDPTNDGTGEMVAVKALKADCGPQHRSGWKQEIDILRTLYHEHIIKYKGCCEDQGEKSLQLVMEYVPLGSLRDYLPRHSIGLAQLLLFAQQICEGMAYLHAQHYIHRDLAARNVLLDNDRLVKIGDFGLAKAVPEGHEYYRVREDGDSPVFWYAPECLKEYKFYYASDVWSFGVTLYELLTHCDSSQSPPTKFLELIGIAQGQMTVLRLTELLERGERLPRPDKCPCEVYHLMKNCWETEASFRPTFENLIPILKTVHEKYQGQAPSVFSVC
# T1 sequence (O60674 whole entry): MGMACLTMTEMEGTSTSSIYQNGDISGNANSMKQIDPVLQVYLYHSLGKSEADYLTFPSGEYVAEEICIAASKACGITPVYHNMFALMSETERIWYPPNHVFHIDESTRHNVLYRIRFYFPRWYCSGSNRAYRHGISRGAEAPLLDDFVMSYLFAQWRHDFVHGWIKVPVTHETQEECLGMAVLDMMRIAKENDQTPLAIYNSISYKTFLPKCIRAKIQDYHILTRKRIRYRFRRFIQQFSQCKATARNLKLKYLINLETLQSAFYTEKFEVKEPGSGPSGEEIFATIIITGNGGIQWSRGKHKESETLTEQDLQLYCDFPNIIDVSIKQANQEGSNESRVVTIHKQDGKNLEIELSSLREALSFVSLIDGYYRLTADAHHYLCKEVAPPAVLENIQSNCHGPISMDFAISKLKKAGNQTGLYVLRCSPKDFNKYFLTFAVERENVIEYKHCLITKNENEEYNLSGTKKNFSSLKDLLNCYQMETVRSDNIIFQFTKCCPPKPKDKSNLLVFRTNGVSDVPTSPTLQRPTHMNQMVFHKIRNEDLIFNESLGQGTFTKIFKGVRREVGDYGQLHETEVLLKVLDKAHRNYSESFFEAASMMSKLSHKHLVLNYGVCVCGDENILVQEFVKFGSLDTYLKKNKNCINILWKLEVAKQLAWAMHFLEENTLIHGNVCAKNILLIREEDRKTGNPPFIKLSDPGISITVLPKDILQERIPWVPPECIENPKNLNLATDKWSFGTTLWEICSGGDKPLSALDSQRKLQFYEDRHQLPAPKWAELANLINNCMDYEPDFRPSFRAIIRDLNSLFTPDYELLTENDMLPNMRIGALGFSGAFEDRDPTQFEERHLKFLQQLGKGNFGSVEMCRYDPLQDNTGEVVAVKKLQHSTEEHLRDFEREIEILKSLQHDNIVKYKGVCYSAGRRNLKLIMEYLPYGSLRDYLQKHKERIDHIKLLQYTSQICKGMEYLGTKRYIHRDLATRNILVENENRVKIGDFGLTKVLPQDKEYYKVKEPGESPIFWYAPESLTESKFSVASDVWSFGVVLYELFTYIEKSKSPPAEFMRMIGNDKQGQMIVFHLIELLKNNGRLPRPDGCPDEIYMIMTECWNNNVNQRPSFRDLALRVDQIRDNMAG
IC50 (JAK2) [µM],IC50 (TYK2) [µM],IC50 (JAK1) [µM],Compound
≥ 10,1 to 10,1 to 10,COc1cccc([C@@H](CO)Nc2nc(Nc3cnn(C)c3)ncc2Cl)c1 [Compound 82]
1 to 10,1 to 10,0.1 to 1,OC[C@@H](Nc1nc(Nc2cn[nH]c2)ncc1Cl)c1ccccc1F [Compound 79]
1 to 10,1 to 10,0.1 to 1,CC(O)Cn1cc(Nc2ncc(Cl)c(NC(CO)c3cccc(F)c3)n2)cn1 (stereo not drawn) [Compound 38]
1 to 10,0.1 to 1,0.1 to 1,CN(C)C(=O)Cn1cc(Nc2ncc(Cl)c(N[C@H](CO)c3ccccc3)n2)cn1 [Compound 30]
≥ 10,1 to 10,1 to 10,CCNC(=O)[C@@H](Nc1nc(Nc2cnn(CCO)c2)ncc1Cl)c1ccccc1 [Compound 27]
1 to 10,0.1 to 1,0.1 to 1,CN(CC#N)C(=O)Cn1cc(Nc2ncc(Cl)c(N[C@H](CO)c3ccccc3)n2)cn1 [Compound 70]
≥ 10,1 to 10,1 to 10,COC(=O)C(Nc1nc(Nc2cnn(C)c2)ncc1Cl)c1ccccc1 (stereo not drawn) [Compound 16]
1 to 10,0.1 to 1,0.1 to 1,NC(=O)Cn1cc(Nc2ncc(Cl)c(N[C@H](CO)c3ccccc3)n2)cn1 [Compound 56]
≥ 10,≥ 10,> 10,O=C([C@@H](Nc1nc(Nc2cnn(CCO)c2)ncc1Cl)c1ccccc1)N1CCCCC1 [Compound 51]
≥ 10,≥ 10,> 10,Cn1ccc(Nc2ncc(Cl)c(N[C@H](CO)c3ccccc3)n2)n1 [Compound 11]
1 to 10,1 to 10,1 to 10,CNC(=O)Cn1cc(Nc2ncc(Cl)c(NC(CO)c3ccccc3F)n2)cn1 (stereo not drawn) [Compound 33]
1 to 10,1 to 10,1 to 10,COCCNC(=O)[C@@H](Nc1nc(Nc2cnn(C)c2)ncc1Cl)c1ccccc1 [Compound 29]
≥ 10,1 to 10,1 to 10,Cn1cc(Nc2ncc(Cl)c(NC(CO)c3cccc(Br)c3)n2)cn1 (stereo not drawn) [Compound 52]
1 to 10,0.1 to 1,1 to 10,CC(C)OC(=O)Cn1cc(Nc2ncc(Cl)c(N[C@H](CO)c3ccccc3)n2)cn1 [Compound 21]
1 to 10,1 to 10,1 to 10,CNC(=O)Cn1cc(Nc2ncc(Cl)c(N[C@H](CCO)c3ccccc3)n2)cn1 [Compound 66]
≥ 10,≥ 10,> 10,OCCn1ccc(Nc2ncc(Cl)c(NC(CO)c3ccccc3F)n2)n1 (stereo not drawn) [Compound 50]
≥ 10,≥ 10,> 10,Cn1cc(Nc2ncc(Cl)c(NC(CO)c3cccc(N4CC5(COC5)C4)c3)n2)cn1 (stereo not drawn) [Compound 53]
1 to 10,0.1 to 1,0.1 to 1,OCCn1cc(Nc2ncc(Cl)c(NC(CO)c3ccccc3F)n2)cn1 (stereo not drawn) [Compound 36]
0.1 to 1,0.1 to 1,1 to 10,O=C(c1cc(Nc2ncc(Cl)c(N[C@H](CO)c3ccccc3)n2)c[nH]1)N1CCOCC1 [Compound 13]
≥ 10,≥ 10,> 10,Cn1cc(Nc2ncc(Cl)c(NC(CO)c3cccc(-c4cnn(C)c4)c3)n2)cn1 (stereo not drawn) [Compound 69]
≥ 10,1 to 10,> 10,Cn1cc(Nc2ncc(F)c(NC(CO)c3ccccc3)n2)cn1 (stereo not drawn) [Compound 2]
1 to 10,0.1 to 1,0.1 to 1,OCCn1cc(Nc2ncc(Cl)c(N[C@H](CO)c3ccccc3F)n2)cn1 [Compound 77]
1 to 10,0.1 to 1,0.1 to 1,OCCn1cc(Nc2ncc(Cl)c(N[C@H](CO)c3ccccn3)n2)cn1 [Compound 80]

IC50 (JAK2) [µM],IC50 (TYK2) [µM],IC50 (JAK1) [µM],Compound
≥ 10,≥ 10,1 to 10,CN(C)C(=O)[C@@H](Nc1nc(Nc2cnn(C)c2)ncc1Cl)c1ccccc1 [Compound 25]
≥ 10,1 to 10,1 to 10,CC(C)(O)Cn1cc(Nc2ncc(Cl)c(NC(CO)c3c(F)cccc3F)n2)cn1 (stereo not drawn) [Compound 62]
≥ 10,1 to 10,1 to 10,O=C(NC1CCCC1)[C@@H](Nc1nc(Nc2cnn(CCO)c2)ncc1Cl)c1ccccc1 [Compound 60]
0.1 to 1,0.1 to 1,0.1 to 1,OCCn1cc(Nc2ncc(Cl)c(NC(CO)c3cccc(F)c3)n2)cn1 (stereo not drawn) [Compound 39]
≥ 10,1 to 10,1 to 10,OCCn1cc(Nc2ncc(Cl)c(N[C@@H](CO)c3ccccc3)n2)cn1 [Compound 63]
1 to 10,1 to 10,1 to 10,COc1cccc([C@@H](CO)Nc2nc(Nc3cnn(CCO)c3)ncc2Cl)c1 [Compound 83]
≥ 10,1 to 10,1 to 10,Cc1cnc(Nc2cnn(CC(F)F)c2)nc1NC(CO)c1c(F)cccc1F (stereo not drawn) [Compound 168]
≥ 10,1 to 10,1 to 10,Cn1cc(Nc2ncc(Cl)c(NC(CO)c3ccccc3)n2)cn1 (stereo not drawn) [Compound 1]
1 to 10,1 to 10,0.1 to 1,O=C(NCCO)[C@@H](Nc1nc(Nc2cnn(CCO)c2)ncc1Cl)c1ccccc1 [Compound 47]
1 to 10,1 to 10,0.1 to 1,"CNC(=O)Cn1cc(Nc2ncc(Cl)c(N[C@H](CO)c3ccccc3)n2)cn1 [Compound 23, (S)-2-(4-((5-chloro-4-((2-hydroxy-1-phenylethyl)amino)pyrimidin-2-yl)amino)-1H-pyrazol-1-yl)-N-methylacetamide]"
≥ 10,1 to 10,1 to 10,Cc1cnc(Nc2cnn(CCO)c2)nc1NC(CO)c1ccccc1 (stereo not drawn) [Compound 12]
1 to 10,1 to 10,1 to 10,Cn1cc(Nc2ncc(Cl)c(NC(C(=O)O)c3ccccc3)n2)cn1 (stereo not drawn) [Compound 18]
1 to 10,0.1 to 1,1 to 10,CC(O)Cn1cc(Nc2ncc(Cl)c(NC(CO)c3c(F)cccc3F)n2)cn1 (stereo not drawn) [Compound 42]
1 to 10,1 to 10,1 to 10,OCC[C@@H](Nc1nc(Nc2cnn(CCO)c2)ncc1Cl)c1ccccc1 [Compound 65]
≥ 10,1 to 10,1 to 10,O=C(O)Cn1cc(Nc2ncc(Cl)c(N[C@H](CO)c3ccccc3)n2)cn1 [Compound 24]
1 to 10,1 to 10,1 to 10,CNC(=O)Cn1cc(Nc2ncc(Cl)c(N[C@H](CO)c3cccnc3)n2)cn1 [Compound 170]
1 to 10,1 to 10,1 to 10,Cn1cc(Nc2ncc(Cl)c(NC(CO)Cc3ccccc3)n2)cn1 (stereo not drawn) [Compound 14]
≥ 10,1 to 10,1 to 10,CCNC(=O)[C@@H](Nc1nc(Nc2cnn(C)c2)ncc1Cl)c1ccccc1 [Compound 28]
≥ 10,1 to 10,1 to 10,COc1cccc([C@@H](CO)Nc2nc(Nc3cnn(CC(N)=O)c3)ncc2Cl)c1 [Compound 84]
1 to 10,0.1 to 1,0.1 to 1,CC(C)NC(=O)Cn1cc(Nc2ncc(Cl)c(N[C@H](CO)c3ccccc3)n2)cn1 [Compound 67]
≥ 10,1 to 10,1 to 10,CNC(=O)[C@@H](Nc1nc(Nc2cnn(C)c2)ncc1Cl)c1ccccc1 [Compound 20]
1 to 10,1 to 10,1 to 10,Cn1cc(Nc2ncc(Cl)c(NC(CO)c3ccccc3F)n2)cn1 (stereo not drawn) [Compound 37]
